From US10172830B2, “Pyrazolone compounds having human neutrophil elastase inhibitory properties” (CHIESI FARMACEUTICI S.P.A., priority 2016, dated 2019) come the findings set out here.

Molecules are shown by their SMILES.

The target in this experiment is T1, human neutrophil elastase (HNE) (Homo sapiens, UniProt P08246).
T1 construct: purchased Sigma E8140
T1 sequence (P08246 30-247 limits assumed): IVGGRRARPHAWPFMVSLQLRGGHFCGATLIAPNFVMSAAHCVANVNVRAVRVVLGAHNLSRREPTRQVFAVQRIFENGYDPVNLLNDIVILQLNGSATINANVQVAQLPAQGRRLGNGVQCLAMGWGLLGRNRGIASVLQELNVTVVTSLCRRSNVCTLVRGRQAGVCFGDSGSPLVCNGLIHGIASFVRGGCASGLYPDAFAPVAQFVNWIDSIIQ
As to the kind of experiment: HNE enzyme assay (human neutrophil elastase enzyme activity assay). Particulars: human leukocyte elastase 0.00072 U/mL; substrate MeOSuc-Ala-Ala-Pro-Val-AMC 100 μM; 25° C. for 30 minutes; at least two separate experiments; read-out: HNE inhibition (HNE enzyme inhibition, IC50 values). It counts as biochemical. Here is the method: Compounds of the present invention were tested for potency in a human neutrophil elastase (HNE) enzyme activity assay.
Assays were performed in 96-well plates in a total assay volume of 100 μL. The final concentration of elastase enzyme (human leukocyte elastase, Sigma E8140) was 0.00072 U/mL. The peptide substrate (MeOSuc-Ala-Ala-Pro-Val-AMC, Calbiochem #324740) was used at a final concentration of 100 μM. The final concentration of DMSO was 1% in the assay buffer (0.05M Tris.HCl, 0.1M NaCl, 0.1M CaCl2, 0.0005% brij-35, pH 7.5). The enzymatic reaction was started by addition of the enzyme and incubated at 25° C. for 30 minutes. After incubation, the reaction was stopped by addition of soybean trypsin inhibitor (Sigma T9003) at a final concentration of 50 μg/well. Fluorescence was measured using a Molecular Devices fluorescence plate reader using 380 nm excitation and 460 nm emission wavelengths.
A dose response to each compound was performed and the effect of compound in each experiment was expressed as a percentage inhibition of the control enzyme fluorescence. Dose response curves were plotted and compound potency (IC50) was determined. Compounds were tested in at least two separate experiments.
One may read the IC50 as the concentration that gives 50% inhibition. As to `CN(C)Cc1cnc(C(C)(C)NC(=O)c2c(-c3ccnn3-c3ccc(C#N)cc3)n(C)n(-c3cccc(C(F)(F)F)c3)c2=O)o1` [Example 10, 2′-(4-Cyano-phenyl)-2-methyl-5-oxo-1-(3-trifluoromethyl-phenyl)-2,5-dihydro-1H,2′H-[3,3′]bipyrazolyl-4-carboxylic acid [1-(5-dimethylaminomethyl-oxazol-2-yl)-1-methyl-ethyl]-amide], the IC50 was < 1 nM.

Take `CC(C)[C@H](NC(=O)c1c(-c2ccnn2-c2ccc(C#N)cc2)n(C)n(-c2cccc(C(F)(F)F)c2)c1=O)c1ncc(CN(C)C)o1` [Example 11, 2′-(4-Cyano-phenyl)-2-methyl-5-oxo-1-(3-trifluoromethyl-phenyl)-2,5-dihydro-1H,2′H-[3,3′]bipyrazolyl-4-carboxylic acid [(S)-1-(5-dimethylaminomethyl-oxazol-2-yl)-2-methyl-propyl]-amide]: the IC50 was < 1 nM.

Regarding `CN1CCC(NC(=O)[C@H]2CC[C@H](NC(=O)c3c(-c4ccnn4-c4ccc(C#N)cc4)n(C)n(-c4cccc(C(F)(F)F)c4)c3=O)CC2)CC1` [Example 12, 2′-(Trans-4-cyano-phenyl)-2-methyl-5-oxo-1-(3-trifluoromethyl-phenyl)-2,5-dihydro-1H,2′H-[3,3′]bipyrazolyl-4-carboxylic acid [4-(1-methyl-piperidin-4-ylcarbamoyl)-cyclohexyl]-amide], the IC50 was < 1 nM.

As to `CN1CCC(OC(=O)[C@H]2CC[C@H](NC(=O)c3c(-c4ccnn4-c4ccc(C#N)cc4)n(C)n(-c4cccc(C(F)(F)F)c4)c3=O)CC2)CC1` [Example 13, Trans-4-{[2′-(4-cyano-phenyl)-2-methyl-5-oxo-1-(3-trifluoromethyl-phenyl)-2,5-dihydro-1H,2′H-[3,3′]bipyrazolyl-4-carbonyl]-amino}-cyclohexanecarboxylic acid 1-methyl-piperidin-4-yl ester], the IC50 was < 1 nM.

As to `CN(C)C1CCN(C(=O)[C@H]2CC[C@H](NC(=O)c3c(-c4ccnn4-c4ccc(C#N)cc4)n(C)n(-c4cccc(C(F)(F)F)c4)c3=O)CC2)CC1` [Example 14, 2′-(Trans-4-cyano-phenyl)-2-methyl-5-oxo-1-(3-trifluoromethyl-phenyl)-2,5-dihydro-1H,2′H-[3,3′]bipyrazolyl-4-carboxylic acid [4-(4-dimethylamino-piperidine-1-carbonyl)-cyclohexyl]-amide], the IC50 was < 1 nM.

On to `CN(C)CCOC(=O)[C@H]1CC[C@H](NC(=O)c2c(-c3ccnn3-c3ccc(C#N)cc3)n(C)n(-c3cccc(C(F)(F)F)c3)c2=O)CC1` [Example 15, Trans-4-{[2′-(4-cyano-phenyl)-2-methyl-5-oxo-1-(3-trifluoromethyl-phenyl)-2,5-dihydro-1H,2′H-[3,3′]bipyrazolyl-4-carbonyl]-amino}-cyclohexanecarboxylic acid 2-dimethylamino-ethyl ester], for which the IC50 is < 1 nM.

On to `CN(C)CC(=O)O[C@H]1CC[C@H](NC(=O)c2c(-c3ccnn3-c3ccc(C#N)cc3)n(C)n(-c3cccc(C(F)(F)F)c3)c2=O)CC1` [Example 16, Dimethylamino-acetic acid trans-4-{[2′-(4-cyano-phenyl)-2-methyl-5-oxo-1-(3-trifluoromethyl-phenyl)-2,5-dihydro-1H,2′H-[3,3′]bipyrazolyl-4-carbonyl]-amino}-cyclohexyl ester], for which the IC50 was < 1 nM.

`C[C@H](NC(=O)c1c(-c2ccnn2-c2ccc(C#N)cc2)n(C)n(-c2cccc(C(F)(F)F)c2)c1=O)C(=O)N1CCCN(C)CC1` [Example 17, 2′-(4-Cyano-phenyl)-2-methyl-5-oxo-1-(3-trifluoromethyl-phenyl)-2,5-dihydro-1H,2′H-[3,3′]bipyrazolyl-4-carboxylic acid [(S)-1-methyl-2-(4-methyl-[1,4]diazepan-1-yl)-2-oxo-ethyl]-amide]: the IC50 is < 1 nM.

Regarding `Cn1c(-c2ccnn2-c2ccc(C#N)cc2)c(C(=O)NC2CC[N+](C)(C)CC2)c(=O)n1-c1cccc(C(F)(F)F)c1` [Example 18, 4-{[2′-(4-Cyano-phenyl)-2-methyl-5-oxo-1-(3-trifluoromethyl-phenyl)-2,5-dihydro-1H,2′H-[3,3′]bipyrazolyl-4-carbonyl]-amino}-1,1-dimethyl-piperidinium benzene sulphonate], the IC50 was < 1 nM.

As to `C[C@H](NC(=O)c1c(-c2ccnn2-c2ccc(C#N)cc2)n(C)n(-c2cccc(C(F)(F)F)c2)c1=O)c1cc[n+](C)cc1` [Example 19, 4-((S)-1-{[2′-(4-Cyano-phenyl)-2-methyl-5-oxo-1-(3-trifluoromethyl-phenyl)-2,5-dihydro-1H,2′H-[3,3′]bipyrazolyl-4-carbonyl]-amino}-ethyl)-1-methyl-pyridinium benzene sulphonate], the IC50 was < 1 nM.

For `Cn1c(-c2ccnn2-c2ccc(C#N)cc2)c(C(=O)NCCC[N+](C)(C)C)c(=O)n1-c1cccc(C(F)(F)F)c1` [Example 20, (3-{[2′-(4-Cyano-phenyl)-2-methyl-5-oxo-1-(3-trifluoromethyl-phenyl)-2,5-dihydro-1H,2′H-[3,3′]bipyrazolyl-4-carbonyl]-amino}-propyl)-trimethyl-ammonium benzene sulphonate], the half-maximal inhibitory concentration (IC50) was 1 to 10 nM.

For `Cn1c(-c2ccnn2-c2ccc(C#N)cc2)c(C(=O)NCC[N+](C)(C)C)c(=O)n1-c1cccc(C(F)(F)F)c1` [Example 21, (2-{[2′-(4-Cyano-phenyl)-2-methyl-5-oxo-1-(3-trifluoromethyl-phenyl)-2,5-dihydro-1H,2′H-[3,3′]bipyrazolyl-4-carbonyl]-amino}-ethyl)-trimethyl-ammonium benzene sulphonate], the IC50 lay within 1 to 10 nM.

`Cn1c(-c2ccnn2-c2ccc(C#N)cc2)c(C(=O)NC2CC[N+]3(CCCC3)CC2)c(=O)n1-c1cccc(C(F)(F)F)c1` [Example 22, 8-{[2′-(4-Cyano-phenyl)-2-methyl-5-oxo-1-(3-trifluoromethyl-phenyl)-2,5-dihydro-1H,2′H-[3,3′]bipyrazolyl-4-carbonyl]-amino}-5-azonia-spiro[4.5]decane bromide]: the IC50 was < 1 nM.

Consider `Cn1c(-c2ccnn2-c2ccc(C#N)cc2)c(C(=O)N[C@@H]2C[C@@H]3C[N+](C)(C)C[C@@H]3C2)c(=O)n1-c1cccc(C(F)(F)F)c1` [Example 23, (3aS,5R,6aR)-5-{[2′-(4-Cyano-phenyl)-2-methyl-5-oxo-1-(3-trifluoromethyl-phenyl)-2,5-dihydro-1H,2′H-[3,3′]bipyrazolyl-4-carbonyl]-amino}-2,2-dimethyl-octahydro-cyclopenta[c]pyrrolium benzene sulphonate], for which the IC50 was < 1 nM.

Consider `Cn1c(-c2ccnn2-c2ccc(C#N)cc2)c(C(=O)N[C@H]2CC[C@H](C[N+](C)(C)C)CC2)c(=O)n1-c1cccc(C(F)(F)F)c1` [Example 24, (Trans-4-{[2′-(4-cyano-phenyl)-2-methyl-5-oxo-1-(3-trifluoromethyl-phenyl)-2,5-dihydro-1H,2′H-[3,3′]bipyrazolyl-4-carbonyl]-amino}-cyclohexylmethyl)-trimethyl-ammonium benzene sulphonate], for which the IC50 was < 1 nM.

As to `Cn1c(-c2ccnn2-c2ccc(C#N)cc2)c(C(=O)N[C@H]2CC[C@H](C[N+](C)(C)Cc3ccccc3)CC2)c(=O)n1-c1cccc(C(F)(F)F)c1` [Example 25, Benzyl-(trans-4-{[2′-(4-cyano-phenyl)-2-methyl-5-oxo-1-(3-trifluoromethyl-phenyl)-2,5-dihydro-1H,2′H-[3,3′]bipyrazolyl-4-carbonyl]-amino}-cyclohexylmethyl)-dimethyl-ammonium bromide], the IC50 was < 1 nM.
